{
  "source": "patent US6355799B1",
  "about": "“Substituted benzene compounds, process for their preparation, and herbicidal and defoliant compositions containing them” (ISK Americas Incorporated, priority 1997, dated 2002)",
  "type_in_all_cases": "in vivo",
  "key": {"[1]": {"test_system": "field corn (Zea mays L., var. Dekalb 535, CORN)", "experiment": "Post-emerge test, crop safety", "conditions": "post-emerge, 14 days after application, rating scale 0-100", "method_in_brief": "(§1)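 Herbicidal damage is scored 0 (none) to 100 (complete plant death) two weeks after a simulated field spray. Rates span 15–1000 g ai/ha, delivered in acetone at 187 l/ha. For post-emergence treatments, plants have 2–3 leaves and the spray carries 0.25% v/v non-ionic surfactant.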"}, "[2]": {"test_system": "upland rice (Oryza sp., var. Tebonnet, RICE)", "experiment": "Post-emerge test, crop safety", "conditions": "post-emerge, 14 days after application, rating scale 0-100", "method_in_brief": "as §1"}, "[3]": {"test_system": "johnsongrass (Sorghum halepense, SORHA)", "experiment": "Post-emerge test, greenhouse herbicide activity screening", "conditions": "post-emerge, 14 days after application, rating scale 0-100", "method_in_brief": "(§2)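 Applied at 15–1000 g ai/ha from acetone in 187 l/ha spray volume. Post-emergence applications included 0.25% v/v non-ionic surfactant and reached plants sown 8–21 days before. Pre-emergence applications were incorporated by surface watering. Efficacy or crop damage was rated on a 0–100 scale after 14 days.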"}, "[4]": {"test_system": "lambsquarters (Chenopodium album, CHEAL)", "experiment": "Post-emerge test, greenhouse herbicide activity screening", "conditions": "post-emerge, 14 days after application, rating scale 0-100", "method_in_brief": "as §2"}, "[5]": {"test_system": "sicklepod (Cassia obtusifolia, CASOB)", "experiment": "Post-emerge test, greenhouse herbicide activity screening", "conditions": "post-emerge, 14 days after application, rating scale 0-100", "method_in_brief": "as §2"}, "[6]": {"test_system": "velvetleaf (Abutilon theophrasti, ABUTH)", "experiment": "Post-emerge test, greenhouse herbicide activity screening", "conditions": "post-emerge, 14 days after application, rating scale 0-100", "method_in_brief": "as §2"}, "[7]": {"test_system": "common ragweed (Ambrosia artemisizfolia L., AMBEL)", "experiment": "Post-emerge test, greenhouse herbicide activity screening", "conditions": "post-emerge, 14 days after application, rating scale 0-100", "method_in_brief": "as §2"}, "[8]": {"test_system": "large crabgrass (Digitaria sanguinalis, DIGSA)", "experiment": "Post-emerge test, greenhouse herbicide activity screening", "conditions": "post-emerge, 14 days after application, rating scale 0-100", "method_in_brief": "as §2"}, "[9]": {"test_system": "ivyleaf morningglory (Ipomoea hederacea, IPOHE)", "experiment": "Post-emerge test, greenhouse herbicide activity screening", "conditions": "post-emerge, 14 days after application, rating scale 0-100", "method_in_brief": "as §2"}, "[10]": {"test_system": "green foxtail (Setaria viridis, SETVI)", "experiment": "Post-emerge test, greenhouse herbicide activity screening", "conditions": "post-emerge, 14 days after application, rating scale 0-100", "method_in_brief": "as §2"}, "[11]": {"test_system": "barnyardgrass (Echinochloa crus-galli, ECHCG)", "experiment": "Post-emerge test, greenhouse herbicide activity screening", "conditions": "post-emerge, 14 days after application, rating scale 0-100", "method_in_brief": "as §2"}, "[12]": {"test_system": "redroot pigweed (Amaranthus retroflexus, AMARE)", "experiment": "Post-emerge test, greenhouse herbicide activity screening", "conditions": "post-emerge, 14 days after application, rating scale 0-100", "method_in_brief": "as §2"}, "[13]": {"test_system": "field corn (Zea mays L., var. Dekalb 535, CORN)", "experiment": "Pre-emerge test, crop safety", "conditions": "rated 14 days after application, 0 = no damage, 100 = complete death", "method_in_brief": "as §2"}, "[14]": {"test_system": "upland rice (Oryza sp., var. Tebonnet, RICE)", "experiment": "Pre-emerge test, crop safety", "conditions": "rated 14 days after application, 0 = no damage, 100 = complete death", "method_in_brief": "as §2"}, "[15]": {"test_system": "redroot pigweed (Amaranthus retroflexus, AMARE)", "experiment": "Pre-emerge test, greenhouse herbicide activity screening", "conditions": "rated 14 days after application, 0 = no damage, 100 = complete death", "method_in_brief": "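Rating: 0–100 visual injury, 14 DAA. Application: acetone, 187 l/ha, 15–1000 g ai/ha, flat-fan track sprayer with nozzle 40–45 cm above soil or canopy. Post-emerge runs used 0.25% v/v surfactant on 2–3 leaf plants.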"}, "[16]": {"test_system": "johnsongrass (Sorghum halepense, SORHA)", "experiment": "Pre-emerge test, greenhouse herbicide activity screening", "conditions": "rated 14 days after application, 0 = no damage, 100 = complete death", "method_in_brief": "as §1"}, "[17]": {"test_system": "lambsquarters (Chenopodium album, CHEAL)", "experiment": "Pre-emerge test, greenhouse herbicide activity screening", "conditions": "rated 14 days after application, 0 = no damage, 100 = complete death", "method_in_brief": "as §1"}, "[18]": {"test_system": "sicklepod (Cassia obtusifolia, CASOB)", "experiment": "Pre-emerge test, greenhouse herbicide activity screening", "conditions": "rated 14 days after application, 0 = no damage, 100 = complete death", "method_in_brief": "as §1"}, "[19]": {"test_system": "velvetleaf (Abutilon theophrasti, ABUTH)", "experiment": "Pre-emerge test, greenhouse herbicide activity screening", "conditions": "rated 14 days after application, 0 = no damage, 100 = complete death", "method_in_brief": "as §1"}, "[20]": {"test_system": "common ragweed (Ambrosia artemisizfolia L., AMBEL)", "experiment": "Pre-emerge test, greenhouse herbicide activity screening", "conditions": "rated 14 days after application, 0 = no damage, 100 = complete death", "method_in_brief": "as §1"}, "[21]": {"test_system": "large crabgrass (Digitaria sanguinalis, DIGSA)", "experiment": "Pre-emerge test, greenhouse herbicide activity screening", "conditions": "rated 14 days after application, 0 = no damage, 100 = complete death", "method_in_brief": "as §1"}, "[22]": {"test_system": "ivyleaf morningglory (Ipomoea hederacea, IPOHE)", "experiment": "Pre-emerge test, greenhouse herbicide activity screening", "conditions": "rated 14 days after application, 0 = no damage, 100 = complete death", "method_in_brief": "as §1"}, "[23]": {"test_system": "green foxtail (Setaria viridis, SETVI)", "experiment": "Pre-emerge test, greenhouse herbicide activity screening", "conditions": "rated 14 days after application, 0 = no damage, 100 = complete death", "method_in_brief": "as §1"}, "[24]": {"test_system": "barnyardgrass (Echinochloa crus-galli, ECHCG)", "experiment": "Pre-emerge test, greenhouse herbicide activity screening", "conditions": "rated 14 days after application, 0 = no damage, 100 = complete death", "method_in_brief": "as §1"}},
  "data": [
    {"smiles": "COc1c(Cl)cc(F)c(-n2c(=O)cc(C(F)(F)F)n(C)c2=O)c1NC(=O)c1ccccc1Cl", "note": "[2-53]", "values": [
      {"measurement": "phytotoxicity rating CORN", "setting": "[1]; 63 g ai/ha", "result": 10},
      {"measurement": "phytotoxicity rating CORN", "setting": "[1]; 250 g ai/ha", "result": 70},
      {"measurement": "phytotoxicity rating RICE", "setting": "[2]; 63 g ai/ha", "result": 30},
      {"measurement": "phytotoxicity rating RICE", "setting": "[2]; 250 g ai/ha", "result": 70},
      {"measurement": "phytotoxicity rating SORHA", "setting": "[3]; 63 g ai/ha", "result": 0},
      {"measurement": "phytotoxicity rating SORHA", "setting": "[3]; 250 g ai/ha", "result": 50},
      {"measurement": "phytotoxicity rating CHEAL", "setting": "[4]; 63 g ai/ha", "result": 95},
      {"measurement": "phytotoxicity rating CHEAL", "setting": "[4]; 250 g ai/ha", "result": 100},
      {"measurement": "phytotoxicity rating CASOB", "setting": "[5]; 63 g ai/ha", "result": 70},
      {"measurement": "phytotoxicity rating CASOB", "setting": "[5]; 250 g ai/ha", "result": 100},
      {"measurement": "phytotoxicity rating ABUTH", "setting": "[6]; 63 g ai/ha", "result": 100},
      {"measurement": "phytotoxicity rating ABUTH", "setting": "[6]; 250 g ai/ha", "result": 100},
      {"measurement": "phytotoxicity rating AMBEL", "setting": "[7]; 63 g ai/ha", "result": 70},
      {"measurement": "phytotoxicity rating AMBEL", "setting": "[7]; 250 g ai/ha", "result": 90},
      {"measurement": "phytotoxicity rating DIGSA", "setting": "[8]; 63 g ai/ha", "result": 0},
      {"measurement": "phytotoxicity rating DIGSA", "setting": "[8]; 250 g ai/ha", "result": 20},
      {"measurement": "phytotoxicity rating IPOHE", "setting": "[9]; 63 g ai/ha", "result": 90},
      {"measurement": "phytotoxicity rating IPOHE", "setting": "[9]; 250 g ai/ha", "result": 100},
      {"measurement": "phytotoxicity rating SETVI", "setting": "[10]; 63 g ai/ha", "result": 20},
      {"measurement": "phytotoxicity rating SETVI", "setting": "[10]; 250 g ai/ha", "result": 40},
      {"measurement": "phytotoxicity rating ECHCG", "setting": "[11]; 63 g ai/ha", "result": 0},
      {"measurement": "phytotoxicity rating ECHCG", "setting": "[11]; 250 g ai/ha", "result": 70},
      {"measurement": "phytotoxicity rating AMARE", "setting": "[12]; 63 g ai/ha", "result": 90},
      {"measurement": "phytotoxicity rating AMARE", "setting": "[12]; 250 g ai/ha", "result": 100},
      {"measurement": "Pre-emerge phytotoxicity rating (0-100), crop damage, CORN", "setting": "[13]; 63 g ai/ha", "result": 25},
      {"measurement": "Pre-emerge phytotoxicity rating (0-100), crop damage, CORN", "setting": "[13]; 250 g ai/ha", "result": 90},
      {"measurement": "Pre-emerge phytotoxicity rating (0-100), crop damage, RICE", "setting": "[14]; 63 g ai/ha", "result": 80},
      {"measurement": "Pre-emerge phytotoxicity rating (0-100), crop damage, RICE", "setting": "[14]; 250 g ai/ha", "result": 90},
      {"measurement": "Pre-emerge Herbicidal Activity, phytotoxicity rating (0-100), AMARE", "setting": "[15]; 63 g ai/ha", "result": 100},
      {"measurement": "Pre-emerge Herbicidal Activity, phytotoxicity rating (0-100), AMARE", "setting": "[15]; 250 g ai/ha", "result": 100},
      {"measurement": "Pre-emerge Herbicidal Activity, phytotoxicity rating (0-100), SORHA", "setting": "[16]; 63 g ai/ha", "result": 40},
      {"measurement": "Pre-emerge Herbicidal Activity, phytotoxicity rating (0-100), SORHA", "setting": "[16]; 250 g ai/ha", "result": 100},
      {"measurement": "Pre-emerge Herbicidal Activity, phytotoxicity rating (0-100), CHEAL", "setting": "[17]; 63 g ai/ha", "result": 100},
      {"measurement": "Pre-emerge Herbicidal Activity, phytotoxicity rating (0-100), CHEAL", "setting": "[17]; 250 g ai/ha", "result": 100},
      {"measurement": "Pre-emerge Herbicidal Activity, phytotoxicity rating (0-100), CASOB", "setting": "[18]; 63 g ai/ha", "result": 95},
      {"measurement": "Pre-emerge Herbicidal Activity, phytotoxicity rating (0-100), CASOB", "setting": "[18]; 250 g ai/ha", "result": 100},
      {"measurement": "Pre-emerge Herbicidal Activity, phytotoxicity rating (0-100), ABUTH", "setting": "[19]; 63 g ai/ha", "result": 100},
      {"measurement": "Pre-emerge Herbicidal Activity, phytotoxicity rating (0-100), ABUTH", "setting": "[19]; 250 g ai/ha", "result": 100},
      {"measurement": "Pre-emerge Herbicidal Activity, phytotoxicity rating (0-100), AMBEL", "setting": "[20]; 63 g ai/ha", "result": 80},
      {"measurement": "Pre-emerge Herbicidal Activity, phytotoxicity rating (0-100), AMBEL", "setting": "[20]; 250 g ai/ha", "result": 100},
      {"measurement": "Pre-emerge Herbicidal Activity, phytotoxicity rating (0-100), DIGSA", "setting": "[21]; 63 g ai/ha", "result": 90},
      {"measurement": "Pre-emerge Herbicidal Activity, phytotoxicity rating (0-100), DIGSA", "setting": "[21]; 250 g ai/ha", "result": 100},
      {"measurement": "Pre-emerge Herbicidal Activity, phytotoxicity rating (0-100), IPOHE", "setting": "[22]; 63 g ai/ha", "result": 100},
      {"measurement": "Pre-emerge Herbicidal Activity, phytotoxicity rating (0-100), IPOHE", "setting": "[22]; 250 g ai/ha", "result": 100},
      {"measurement": "Pre-emerge Herbicidal Activity, phytotoxicity rating (0-100), SETVI", "setting": "[23]; 63 g ai/ha", "result": 100},
      {"measurement": "Pre-emerge Herbicidal Activity, phytotoxicity rating (0-100), SETVI", "setting": "[23]; 250 g ai/ha", "result": 100},
      {"measurement": "Pre-emerge Herbicidal Activity, phytotoxicity rating (0-100), ECHCG", "setting": "[24]; 63 g ai/ha", "result": 40},
      {"measurement": "Pre-emerge Herbicidal Activity, phytotoxicity rating (0-100), ECHCG", "setting": "[24]; 250 g ai/ha", "result": 99}
    ]}
  ]
}
